≈ marks a conversion by molar mass, not a printed value.

For the series the following is noted: buffer; pH 7.4; 200.0 µM.
Compound `COC(=O)c1ccc(N2C(=O)C3CC=CC(C)C3C2=O)cc1` (configuration not stated) yielded a solubility (kinetic) of 20 µg/mL (≈ 66.8 µM). As to `O=C(/C=C/c1ccccc1)N1CCOCC1`, the kinetic solubility is > 32.6 µg/mL.

As to `COc1cc2c(cc1OC)CN(CC(=O)Nc1ccc(F)cc1)CC2`, the solubility (kinetic) came out at 39 µg/mL (≈ 113 µM). Compound `CCn1c(=O)c(C(=O)CC#N)c(N)n(Cc2ccccc2)c1=O` came in with a kinetic solubility of 4.1 µg/mL (≈ 13.1 µM). In the case of `O=C(O)C1CCN(C(=O)c2cc(F)cc3c2OCOC3)CC1`, the kinetic solubility was > 46.4 µg/mL.

Take `N#Cc1c(N)nc(Sc2ccc(Cl)cc2)c(C#N)c1-c1ccccc1Cl`: the kinetic solubility was < 0.2 µg/mL. As for `CCC(OC(=O)c1nsc(Cl)c1Cl)C(=O)NCCOC` (configuration not stated), the kinetic solubility is > 51.2 µg/mL.

Turning to `O=C1CCCC(=O)N1c1ccc(N2CCOCC2)c([N+](=O)[O-])c1`, the kinetic solubility was > 47.9 µg/mL.

The compound `COc1ccc(/C=C/C(=O)OCC(=O)NCCCc2ccccc2)cc1OC` returned a solubility (kinetic) of 20 µg/mL (≈ 52.2 µM). In the case of `CCN(CC)C(=O)C1=C(C)NC(=S)NC1c1ccc(C)s1` (configuration not stated), the kinetic solubility amounted to 44.1 µg/mL (≈ 136 µM).

`CCc1c(C)nc(N2CCN(c3ccccc3)CC2)[nH]c1=O` gave a kinetic solubility of 8.8 µg/mL (≈ 29.5 µM).

In turn, `COCCOC(=O)C1=C(C)NC(=O)NC1c1cccc2ccccc12` (configuration not stated) returned a solubility (kinetic) of 48.8 µg/mL (≈ 143 µM). As for `O=C(c1ccc(F)cc1)N1CCCC(C(=O)N2CCCCC2)C1` (configuration not stated), the solubility (kinetic) is > 47.8 µg/mL. Under `O=C(Nc1ccncc1)c1cc(S(=O)(=O)N2CCCC2)ccc1Cl` stands > 54.9 µg/mL; under `COc1cc(NC(=S)N(C)C)c(OC)cc1Cl`, > 41.2 µg/mL. In the case of `CCOC(=O)COc1nc(-c2ccco2)cc(-c2ccco2)c1C#N` it was 2.8 µg/mL (≈ 8.28 µM); in that of `O=C(CSc1nc2ccccc2o1)N1CCOCC1`, > 41.7 µg/mL; in that of `Cc1ccc2c(c1)c1c3n2CCN(C=O)C3CCC1` (configuration not stated), 28.1 µg/mL (≈ 110 µM). `CC(=O)c1ccc(NC(=O)C2CCCO2)cc1` (configuration not stated): the solubility (kinetic) is > 35 µg/mL. As for `Cc1onc(-c2ccccc2)c1CNC(=O)Nc1ccc(F)cc1F`, the solubility (kinetic) turned out to be 4.1 µg/mL (≈ 11.9 µM).

Consider `Cc1ccc(S(=O)(=O)NCC[C@@]2(C)C3CCC2(C)C(=O)C3)cc1` (some centres not stated), for which the kinetic solubility is > 50.3 µg/mL. For `O=C(O)c1ccc(-c2ccccc2)[nH]c1=O`, the solubility (kinetic) is > 32.3 µg/mL. As for `Cc1ccc(Cn2c(CCCO)nc3ccccc32)cc1`, the solubility (kinetic) is 34.5 µg/mL (≈ 123 µM). Turning to `Cc1cc(C)n2nc(SCC(=O)N3CCCC3)nc2n1`, the kinetic solubility was > 43.7 µg/mL. For `CC12CCC(C(=O)Nc3cc(F)ccc3F)(CC1=O)C2(C)C` (configuration not stated), the solubility (kinetic) worked out at 32 µg/mL (≈ 104 µM). On to `Cc1cccc(S(=O)(=O)Nc2ccc(S(=O)(=O)Nc3nccs3)cc2)c1`, for which the kinetic solubility is > 61.4 µg/mL.

The compound `CN(CC(=O)Nc1ccc(F)cc1Cl)Cc1cccs1` came in with a solubility (kinetic) of 14.6 µg/mL (≈ 46.7 µM). Compound `COC(=O)C1CCN(C(=O)/C(C)=C\c2ccccc2)CC1` returned a solubility (kinetic) of 41 µg/mL (≈ 143 µM).

`C=CCn1c(=S)sc2c(=O)[nH]cnc21`: the kinetic solubility was > 33.8 µg/mL.

Regarding `Cn1c(N)c(C(=O)COC(=O)c2ccc(C(F)(F)F)cc2)c(=O)n(C)c1=O`, the kinetic solubility turned out to be 15.2 µg/mL (≈ 39.4 µM). Turning to `COCC1CCCN(C(=O)c2ccc3oc(C(C)C)nc3c2)C1` (configuration not stated), the solubility (kinetic) was 42.2 µg/mL (≈ 133 µM).

For `Cc1cc(NC(=O)c2ccc3c(c2)C(=O)N(CC(C)C)C3=O)no1`, the solubility (kinetic) came out at 2.1 µg/mL (≈ 6.42 µM).

`O=S(=O)(c1ccc(F)cc1)N1CCc2ccccc21` displayed a solubility (kinetic) of 18.9 µg/mL (≈ 68.2 µM). `O=C1c2ccccc2NC(c2ccc(Br)s2)N1O` (configuration not stated) yielded a kinetic solubility of 37.5 µg/mL (≈ 115 µM). As for `C(=C\c1nc(-c2ccncc2)no1)/c1ccccc1`, the solubility (kinetic) is 3.4 µg/mL (≈ 13.6 µM). Turning to `CCc1cccc(NC(=O)CC2Oc3ccccc3NC2=O)c1` (configuration not stated), the solubility (kinetic) was 2.4 µg/mL (≈ 7.73 µM).

As to `Cc1nn(C)c(C)c1NC(=O)c1ccc(Br)o1`, the solubility (kinetic) is > 44.7 µg/mL. As to `O=C(OCC(=O)N1CCCC1=O)c1cccc([N+](=O)[O-])c1`, the solubility (kinetic) was > 43.8 µg/mL. `COC(=O)c1c(-c2ccccc2)noc1C` displayed a kinetic solubility of 18.1 µg/mL (≈ 83.3 µM). With `COC(=O)c1cc(C(=O)NCc2ccc3c(c2)OCO3)cc([N+](=O)[O-])c1`, the kinetic solubility came out at 2.6 µg/mL (≈ 7.26 µM). In turn, `CC(C)c1ccc(NS(=O)(=O)c2ccc3c(c2)oc(=O)n3C)cc1` yielded a solubility (kinetic) of 0.9 µg/mL (≈ 2.6 µM). Regarding `O=c1c2ccccc2nc(-c2ccccc2Cl)n1-c1cccc(O)c1`, the kinetic solubility is > 52.3 µg/mL. Under `CN(CCc1ccccn1)C(=O)c1cccnc1Oc1ccccc1` stands > 50 µg/mL; under `Cc1sc2ncnc(SCC(=O)N(C(C)C)C(C)C)c2c1C`, 1.6 µg/mL (≈ 4.74 µM). `O=C(OCC(=O)c1ccc[nH]1)c1cncc(Br)c1` returned a kinetic solubility of 24.2 µg/mL (≈ 78.3 µM). In turn, `Nc1ccc(Oc2ccccc2-c2ccccc2)cc1` showed a kinetic solubility of 10.4 µg/mL (≈ 39.8 µM).

Regarding `O=C(CSc1nc2ccccc2[nH]1)NCc1ccccc1`, the solubility (kinetic) came to 33.7 µg/mL (≈ 113 µM). Compared with the last compound, the solubility kinetic is about 3.2-fold higher. `CCCCC(=O)NC(=O)NC(c1ccccc1)c1ccccc1`: the solubility (kinetic) was < 0.3 µg/mL. For `COc1ccc(-c2cc(C(=O)NCc3ccco3)c3ccccc3n2)cc1OC`, the kinetic solubility amounted to 1.7 µg/mL (≈ 4.38 µM). In the case of `O=C(COC(=O)c1cccc(C(F)(F)F)c1)NC(=O)NC1CCCC1`, the solubility (kinetic) stood at 5.2 µg/mL (≈ 14.5 µM). With `Cc1ccc(Nc2c(F)c(F)c(F)c(F)c2C(=O)O)c(C)c1`, the kinetic solubility came out at 40.4 µg/mL (≈ 129 µM). Compared with the last compound, the solubility kinetic is about 7.8-fold higher.

For the compound `COC(=O)c1cc(NC(=O)CN(C)C2CCS(=O)(=O)C2)cc(C(=O)OC)c1.O=C(O)C(=O)O` (configuration not stated), the kinetic solubility was > 73.3 µg/mL.

(Values after PubChem BioAssay AID1996.)
